Test results taken from patent publication US6608058B2, “6-methylnicotinamide derivatives as antiviral agents” (Dong Wha Pharm. Ind. Co., Ltd., priority 2000, dated 2003).

Experiments:
HBV polymerase = experiment: Inhibitory effect on the in vitro activities of HBV polymerase in reverse transcription (ELISA-type); assay type: biochemical
Excerpt: The present inventors submitted application for a patent concerning HBV polymerase genetically expressed in and separated from E. coli, the process of its preparation, and the method to measure the enzyme activities (KR 94-3918, KR 96-33998). In the present experiments HBV polymerase was used which had been expressed in E. coli as stated above.
The method used in the present invention to measure in vitro reverse transcribing activities of HBV polymerase is as follows. Basic principles are the same as those for ELISA, nucleotides with biotin- or digoxigenin- group are included as substrates and anti-DIG antibodies attached to peroxidase enzyme recognize the polymerized substrates.
To the wells coated with streptavidin, 20 μl of HBV polymerase, 20 μl of reaction mixture (10 μM each of DIG-UTP and Biotin-UTP, 46 mM Tris-HCl, 266 mM KCl, 27.5 mM MgCl2, 9.2 mM DTT substrate/primer hybrid), and 20 μl of test compound (added to […]) were added and allowed to react at 22° C. for 15 hrs. During this reaction, HBV polymerase catalyzes DNA synthesis, and digoxigenin and biotin attached to nucleotides form bonds to streptavidin coated on the bottom of wells. When the reaction was done, each well was washed with 250 μl of cleaning buffer (pH 7.0) for 30 seconds, which was repeated five times to remove remaining impurities. 200 μl of anti-DIG-POD antibody was added to each well and allowed to react for 1 hr at 37° C., and the wells were washed with cleaning buffer to remove impurities. 200 μl each of ABTS™, a substrate of peroxidase, was then added and allowed to react at room temperature for 30 min. Absorbancy was measured at 405 nm using ELISA reader.
The inhibitory effects in HBV polymerase activities for reverse transcription were calculated using the group without test compound as a control and the results are shown in Table 1 as follows.

[1] = biological target: T1, HIV reverse transcriptase (Human immunodeficiency virus type 1 group M subtype B, UniProt P04585); experiment: Inhibitory effect on the in vitro HIV reverse transcriptase activity (non-radioactive RT assay kit); assay type: biochemical; conditions: for inhibition at 0.1 µg/mL: 0.1 μg/ml; for inhibition at 1 µg/mL: 1 μg/ml
T1 construct: purchased Boehringer Mannheim
Description: Non-radioactive reverse transcriptase assay kit (Boehringer Mannheim) was used in the measurement of in vitro transcriptase activities. 20 μl (40 ng) of HIV reverse transcriptase and 20 μl of reaction mixture containing matrix-primer hybrid poly(A)oligo(dT)15, DIG(digoxigenin)-dUTP, biotin-dUTP, dTTP were added to wells coated with streptavidin, and the test compounds prepared were also added at the final concentrations of 0.1 and 1 μ/ml and allowed to react at 37° C. for 1 hr. At this time, DNA is formed from RNA by the action of HIV reverse transcriptase, forming bonds with streptavidin coated on the bottom of wells through digoxigenin and biotin moieties attached to nucleotides.
When the reaction was completed, each well was washed with 250 μl of washing buffer (pH 7.0) for 30 sec. five times to remove remaining impurities. 200 μl of anti-DIG-POD […] was added to each well, then the mixture was allowed to react at 37° C. for 1 hr and washed as above to remove impurities. 200 μl of ABTS™, a substrate for peroxidase, was added to each well and the mixture was allowed to react at room temperature for 30 min. Absorbance at 405 nm was measured for each solution using ELISA reader to determine the inhibitory effect on the HIV reverse transcriptase activities. The percentage of inhibition in the activity of HIV reverse transcriptase was calculated using the group without test compound as control and the results are represented in Table 3.

Compound | Inhibitory activity on HBV-RT (%) (HBV polymerase; 0.01 μg/ml) | Inhibitory activity on HBV-RT (%) (HBV polymerase; 0.1 μg/ml) | Inhibitory activity on HBV-RT (%) (HBV polymerase; 1 μg/ml) | inhibition at 0.1 µg/mL [1] | inhibition at 1 µg/mL [1]
Cc1ccc(C(=O)NC(C)C)c(Nc2ccc3[nH]ncc3c2)n1 [Example 1, 2-(1H-5-indazolylamino)-N-isopropyl-6-methylnicotinamide] | 30% | 49% | 78% | 42% | 75%
Cc1ccc(C(=O)NN2CCOCC2)c(Nc2ccc3[nH]ncc3c2)n1 [Example 2, 2-(1H-5-indazolylamino)-6-methyl-N-(4-morpholinyl)nicotinamide] | 42% | 57% | 88% | 49% | 84%
Cc1ccc(C(=O)N[C@H]2CC[C@H](O)CC2)c(Nc2ccc3[nH]ncc3c2)n1 [Example 3, N-(Trans-4-hydroxy-1-cyclohexyl)-2-(1H-5-indazolylamino)-6-methylnicotinamide] | 53% | 61% | 80% | 51% | 80%
Cc1ccc(C(=O)Nc2cccnc2)c(Nc2ccc3[nH]ncc3c2)n1 [Example 4, 2-(1H-5-indazolylamino)-6-methyl-N-(3-pyridyl)nicotinamide] | 50% | 64% | 92% | 40% | 64%
Cc1ccc(C(=O)NCc2cccnc2)c(Nc2ccc3[nH]ncc3c2)n1 [Example 5, 2-(1H-5-indazolylamino)-6-methyl-N-(3-pyridylmethyl)nicotinamide] | 37% | 43% | 65% | 38% | 69%
Cc1ccc(C(=O)NCCc2ccccn2)c(Nc2ccc3[nH]ncc3c2)n1 [Example 6, 2-(1H-5-indazolylamino)-6-methyl-N-(2-pyridylethyl)nicotinamide] | 40% | 55% | 84% | 45% | 77%
CNC(=O)c1ccc(C)nc1Nc1ccc2cn[nH]c2c1 [Example 7, 2-(1H-6-indazolylamino)-6-methyl-N-methylnicotinamide] | 21% | 50% | 70% |  | 
Cc1ccc(C(=O)NC(C)C)c(Nc2ccc3cn[nH]c3c2)n1 [Example 8, 2-(1H-6-indazolylamino)-N-isopropyl-6-methylnicotinamide] | 23% | 54% | 78% | 28% | 65%
Cc1ccc(C(=O)NC(C)(C)C)c(Nc2ccc3cn[nH]c3c2)n1 [Example 9, N-(t-butyl)-2-(1H-6-indazolylamino)-6-methylnicotinamide] | 20% | 48% | 65% |  | 
Cc1ccc(C(=O)NCCO)c(Nc2ccc3cn[nH]c3c2)n1 [Example 10, N-(2-hydroxyethyl)-2-(1H-6-indazolylamino)-6-methylnicotinamide] | 48% | 62% | 89% |  | 
Cc1ccc(C(=O)NC2CC2)c(Nc2ccc3cn[nH]c3c2)n1 [Example 11, N-cyclopropyl-2-(1H-6-indazolylamino)-6-methylnicotinamide] | 32% | 54% | 84% | 45% | 82%
Cc1ccc(C(=O)NCCN(C)C)c(Nc2ccc3cn[nH]c3c2)n1 [Example 12, N-[2-(dimethylamino)ethyl]-2-(1H-6-indazolylamino)-6-methylnicotinamide] | 49% | 60% | 86% |  | 
CCN(CC)CCNC(=O)c1ccc(C)nc1Nc1ccc2cn[nH]c2c1 [Example 13, N-[2-(diethylamino)ethyl]-2-(1H-6-indazolylamino)-6-methylnicotinamide] | 15% | 45% | 54% |  | 
Cc1ccc(C(=O)NCCN2CCOCC2)c(Nc2ccc3cn[nH]c3c2)n1 [Example 14, 2-(1H-6-indazolylamino)-6-methyl-N-[2-(4-morpholinyl)ethyl]nicotinamide] | 52% | 68% | 91% | 41% | 70%
Cc1ccc(C(=O)NCCN2CCCCC2)c(Nc2ccc3cn[nH]c3c2)n1 [Example 15, 2-(1H-6-indazolylamino)-6-methyl-N-[2-(1-piperidinyl)ethyl]nicotinamide] | 12% | 57% | 87% | 43% | 78%
Cc1ccc(C(=O)NN2CCOCC2)c(Nc2ccc3cn[nH]c3c2)n1 [Example 16, 2-(1H-6-indazolylamino)-6-methyl-N-(4-morpholinyl)nicotinamide] | 35% | 51% | 78% |  | 
Cc1ccc(C(=O)NN2CCN(C)CC2)c(Nc2ccc3cn[nH]c3c2)n1 [Example 17, 2-(1H-6-indazolylamino)-6-methyl-N-(4-methyl-1-piperazinyl)nicotinamide] | 24% | 56% | 86% | 50% | 84%
Cc1ccc(C(=O)Nc2cccnc2)c(Nc2ccc3cn[nH]c3c2)n1 [Example 18, 2-(1H-6-indazolylamino)-6-methyl-N-(3-pyridyl)nicotinamide] | 18% | 40% | 69% |  | 
Cc1ccc(C(=O)NCc2cccnc2)c(Nc2ccc3cn[nH]c3c2)n1 [Example 19, 2-(1H-6-indazolylamino)-6-methyl-N-(3-pyridylmethyl)nicotinamide] | 32% | 48% | 76% |  | 
Cc1ccc(C(=O)NCCCn2ccnc2)c(Nc2ccc3cn[nH]c3c2)n1 [Example 20, N-[3-(1H-1-imidazolyl)propyl]-2-(1H-6-indazolylamino)-6-methylnicotinamide] | 47% | 59% | 88% | 47% | 88%
Cc1ccc(C(=O)N(N)c2ccccn2)c(Nc2ccc3cn[nH]c3c2)n1 [Example 21, 2-(1H-6-indazolylamino)-6-methyl-N-(2-pyridyl)-3-pyridinecarbohydrazide] | 30% | 50% | 86% | 49% | 75%
Cc1ccc(C(=O)N(N)C(=O)c2cccnc2)c(Nc2ccc3cn[nH]c3c2)n1 [Example 22, 2-(1H-6-indazolylamino)-6-methyl-N-(3-pyridylcarbonyl)-3-pyridinecarbohydrazide] | 26% | 54% | 85% |  | 
Cc1ccc(C(=O)N2CCOCC2)c(Nc2ccc3cn[nH]c3c2)n1 [Example 23, 2-(1H-6-indazolylamino)-6-methyl-3-(4-morpholinylcarbonyl)pyridine] | 12% | 40% | 62% |  | 
